From EP1641803B1, “THIENOPYRIMIDINE DERIVATIVES AS POTASSIUM CHANNEL INHIBITORS” (Xention Limited, priority 2003, dated 2004) come the findings set out here.

The target of one assay is hKv1.5 (Homo sapiens, UniProt P22460). Put plainly: Kv1.5 Autopatch Electrophysiology (whole cell patch-clamp). The class given is cell-based. As to conditions: compound at 1µM, room temperature (22-24°C), held at -80mV, step to 0mV for 1000ms, total charge measured. On the procedure:
The external bathing solution contained (in mM): 150 NaCl, 10 KCl, […], 3 MgCl2, 1 CaCl2, 10 HEPES, pH 7.4. Patch pipettes were filled with an electrode solution of composition (in mM): 160 KCl, 0.5 MgCl2, 10 HEPES, 1 EGTA, pH 7.4 with KOH.
Compounds were dissolved in DMSO (100 %) and made up in the external bather at a concentration of 1µM. All experiments were conducted at room temperature (22-24°C).
A cell suspension (10 ml), with a density of 100,000 cells/ml, was aliquoted into a 15ml centrifuge tube and transferred to an incubator (37°C, 5% CO2) for approximately one hour before use. Following 60 min incubation, a tube was taken and centrifuged at 1000 rpm for 4 mins at room temperature. 9.5 ml supernatant was thence discarded, leaving a cell pellet at the bottom of the tube. The pellet was then resuspended using 100 µl of cold (4 °C), filtered (0.22 µm), 0.2 % BSA/bather solution (0.02g BSA/10ml bather). The bottom of the tube was manually agitated gently until the solution became cloudy with cells. The 100 µl cell resuspension solution was then stored on the bench at 4 °C (using a Peltier-based temperature control device) until used.
A length of capillary glass (1B150F-4, WPI) was dipped into the cell suspension solution, such that - 3 cm column of fluid was taken up by capillary action. A Ag/AgCl wire was dropped into the non-dipped end of the capillary also. The outside of the solution-filled end of the capillary was then dried and the capillary was loaded into the AutoPatch™. Borosilicate glass patch pipettes (from 1.5mm OD, thin-walled filamented, GC150-TF capillary glass, Harvard) were pulled using a DMZ pipette puller (Zeitz Instruments), and were back-filled using the internal pipette solution, being careful that no bubbles remain at the tip or in the body of the pipette. Patch pipettes typically had resistances of 2.3-3.5 MΩ. Once filled, the pipette tip and a proportion of the shaft (- 15 mm) were dipped into Sigmacote (Sigma). The recording pipette was then loaded into the AutoPatch™.
Automated patch-clamping was initiated by the operator, but thereafter AutoPatch.exe continued the experiment providing that pre-set conditions and criteria were satisfied.
Whole cell patch-clamp recordings were made using the AutoPatch™ rig, which incorporated an EPC9 amplifier (HEKA, Germany) under control of Pulse software (v8.54, HEKA, Germany), a motion controller with 2 translators (Newport, UK), valve controller (VF1) and a c-level suction device all at room temperature (22-24°C). This equipment was completely under the control of AutoPatch.exe and operator intervention was only made when there was a requirement to refill the drug reservoirs or to prevent the loss of a cell due to a technical error. Cells with an Rseries greater than 18 MΩ were discounted from the experiment.
Qualification stages prior to perfusion and drug application ensured that the observed current met the criteria for the experiment. Only those cells with an IK > 500 pA were used for experiments. Cells were continuously perfused with external solution at a flow rate of 1.8-2 ml/minute. […] Online analysis of the hKv1.5 current during the application of compounds was performed by the AutoPatch™ software. Voltage-step protocols and analysis of data was performed as described for conventional electrophysiology.
Electrophysiology voltage-step protocols and analysis of data was performed as follows. Data was sampled at 5kHz, and filtered with a -3 dB bandwidth of 2.5kHz. Cells were held at a voltage of -80mV. Currents were evoked to a voltage step for 1000ms in duration at 0mV every 5s. Currents were analysed using Pulsefit software (v8.54, HEKA, Germany), with the total charge measured during the whole of the voltage step. All other plots were produced using Igor Pro (WaveMetrics).
Background: The patch-clamp technique gives a direct electrical read-out from membranes.

The target in a further assay is T1, human Kv1.5 (Homo sapiens, UniProt P22460).
T1 construct: expressed in transfected cells
Briefly: Kv1.5 Rb+ Efflux Assay. The settings on record: inhibition of 86Rb+ efflux through Kv1.5; cells stably transfected with human Kv1.5; 10 point concentration response curves n=2; normalised to 2.5mM 4 amino-pyridine block. The class given is cell-based. On the procedure:
The pore of a potassium channel is permeable to other monovalent cations such as Rb^+ and Tl^+. Analysis of cellular efflux of potassium channel permeable ions enables potassium channel activity to be monitored directly. Cells stably transfected with cDNA for human Kv1.5 (in pEF6::VA-His-TOPO) were grown in Dulbecco's Modified Eagle media (DMEM) alpha supplemented with 10% Fetal Calf Serum (FCS), 20 µl/ml penicillin (5000U/ml) streptomycin (5000µg/ml), 10µl/ml [100x] glutamine, and blasticidin (7.5µg/ml). Cells were dispensed into 96 well cellstar TC plates and allowed to grow until a confluent monolayer was visible. On the morning of the assay run, cold media was aspirated using the TECAN plate washer, and a 50µl media spike containing 2µCi/ml (37kBq/ml) ^86Rb^+ added to each well containing cells using the Shallow-Well Matrix Platemate. Plates were placed in a incubator at 37°C for a minimum of 3 hours. Unloaded ^86Rb^+ in the "hot" media was aspirated and each well washed 4x250µl with Earls Balanced Salt Solution (EBSS) which contained 5mM KCl, 140mM NaCl, 2mM CaCl2, 1mM MgSO4, 10mM HEPES, and 5mM glucose, pH 7.4, 290-300 mOsm. These cells were then pre-incubated with 50µl of EBSS +/- test compounds for 10 minutes at room temperature. After the 10 minute incubation, 50µl of modified EBSS which contained 145mM KCl, 2mM CaCl2, 1mM MgSO4, 10mM HEPES, 5mM glucose, pH 7.4, 290-300 mOsm, was added, and the cells were incubated for a further 10 minutes at room temperature. The high KCl EBSS was used to depolarise cells to a membrane potential that would activate Kv1.5 channels. After the final incubation 80µl/100µl of the reaction from each well was transferred to equivalent wells in a Packard "Optiplate" white 96 well plate and counted in a Packard TopCount liquid scintillation counter by Cerenkov emission. Percentage inhibition ^86Rb^+ efflux through Kv1.5 was calculated by normalisation to 2.5mM 4 amino-pyridine control block of Kv1.5. Alternatively cells were loaded with ^85Rb^+ and quantified by atomic absorption spectroscopy. IC50 determinations were derived from 10 point concentration response curves n=2 using the method described above. Data was fitted as variable slope sigmoidal fit using Graphpad Prism (V3.02) software.

hKv1.5, sequence (P22460 whole entry): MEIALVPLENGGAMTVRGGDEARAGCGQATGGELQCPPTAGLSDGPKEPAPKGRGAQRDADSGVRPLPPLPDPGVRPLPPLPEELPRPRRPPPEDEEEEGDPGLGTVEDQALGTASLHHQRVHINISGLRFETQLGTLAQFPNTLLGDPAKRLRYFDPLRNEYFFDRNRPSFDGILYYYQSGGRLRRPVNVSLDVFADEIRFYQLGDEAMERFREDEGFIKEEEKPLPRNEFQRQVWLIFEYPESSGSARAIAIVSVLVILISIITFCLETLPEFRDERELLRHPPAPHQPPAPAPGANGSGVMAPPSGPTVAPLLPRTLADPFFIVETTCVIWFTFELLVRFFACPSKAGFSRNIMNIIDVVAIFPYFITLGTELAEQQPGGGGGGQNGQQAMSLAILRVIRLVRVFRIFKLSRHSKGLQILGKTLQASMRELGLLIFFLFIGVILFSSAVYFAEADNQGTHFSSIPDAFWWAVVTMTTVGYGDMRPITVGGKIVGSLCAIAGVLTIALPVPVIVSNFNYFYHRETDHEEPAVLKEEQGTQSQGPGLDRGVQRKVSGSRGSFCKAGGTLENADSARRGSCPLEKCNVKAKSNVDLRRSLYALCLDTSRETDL
T1 sequence (P22460 whole entry): as above

A word on the inhibition: it is the percentage by which the read-out fell short of the control. A word on the IC50: it is the concentration that gives 50% inhibition. Higher therefore signals weaker potency in that assay. As for `c1ccc(-c2csc3ncnc(NCc4ccco4)c23)cc1` [Example 83, Furan-2-ylmethyl-(5-phenyl-thieno[2,3-d]pyrimidin-4-yl)-amine], 1 µM produced 21.9% inhibition on hKv1.5. This compound also had a concentration for half-maximal inhibition (IC50) against human Kv1.5 of 0.07 µM.

On hKv1.5, `c1ccc(-c2csc3ncnc(NCC4CC4)c23)cc1` [Example 84, Cyclopropylmethyl-(5-phenyl-thieno[2,3-d]pyrimidin-4-yl)-amine] displayed an inhibition at 1 µM of 15.3%. This compound registered a half-maximal inhibitory concentration (IC50) against human Kv1.5 of 0.8 µM.

On hKv1.5, `c1ccc(-c2csc3ncnc(NCc4cccs4)c23)cc1` [Example 85, (5-Phenyl-thieno[2,3-d]pyrimidin-4-yl)-thiophen-2-ylmethyl-amine] showed an inhibition at 1 µM of 24.2%. The compound also came in with a 50% inhibitory concentration (IC50) at human Kv1.5 of 4.21 µM.

On hKv1.5, `c1ccc(CNc2ncnc3scc(-c4ccccc4)c23)cc1` [Example 86, Benzyl-(5-phenyl-thieno[2,3-d]pyrimidin-4-yl)-amine] had an inhibition at 1 µM of 46%. In addition, at human Kv1.5, 4.36 µM corresponded to half-maximal inhibition (IC50).

In turn, `C=CCNc1ncnc2scc(-c3ccccc3)c12` [Example 87, Allyl-(5-phenyl-thieno[2,3-d]pyrimidin-4-yl)-amine] showed an inhibition at 1 µM against hKv1.5 of 3.4%. On human Kv1.5, this compound registered an IC50 of 5.14 µM.

On hKv1.5, `CN(Cc1ccco1)c1ncnc2scc(-c3ccccc3)c12` [Example 88, Furan-2-ylmethyl-methyl-(5-phenyl-thieno[2,3-d]pyrimidin-4-yl)-amine] gave an inhibition at 1 µM of 26.4%. In addition, the concentration for half-maximal inhibition (IC50) at human Kv1.5 was found to be 6.82 µM.

One may read the % Inhibition as the change of the read-out against control, counted positive when it falls. The low end stands for a weak effect, the high end for a strong effect. With `c1ccc(-c2csc3ncnc(NCC4CCCCC4)c23)cc1` [Example 89, Cyclohexylmethyl-(5-phenyl-thieno[2,3-d]pyrimidin-4-yl)-amine], the “% Inhibition at 1µM” value at hKv1.5 worked out at 42.2%. The compound further gave a concentration for half-maximal inhibition (IC50) against human Kv1.5 of 8.1 µM.

The compound `c1ccc(CCNc2ncnc3scc(-c4ccccc4)c23)cc1` [Example 90, Phenethyl-(5-phenyl-thieno[2,3-d]pyrimidin-4-yl)-amine] had an IC50 against human Kv1.5 of 10.1 µM. In other words, the double-digit micromolar range.

`c1ccc(-c2csc3ncnc(NC4CCCCC4)c23)cc1` [Example 91, Cyclohexyl-(5-phenyl-thieno[2,3-d]pyrimidin-4-yl)-amine] yielded a concentration for half-maximal inhibition (IC50) against human Kv1.5 of more than 30 µM.

At hKv1.5, `c1coc(CNc2ncnc3scc(-c4cccs4)c23)c1` [Example 92, Furan-2-ylmethyl-(5-thiophen-2-yl-thieno[2,3-d]pyrimidin-4-yl)-amine] yielded an inhibition at 1 µM of 27.6%. Further, on human Kv1.5, the 50% inhibitory concentration (IC50) was found to be 1.91 µM.

The compound `O=[N+]([O-])c1ccc(CNc2ncnc3scc(-c4cccs4)c23)cc1` [Example 93, (4-Nitro-benzyl)-(5-thiophen-2-yl-thieno[2,3-d]pyrimidin-4-yl)-amine] displayed an inhibition at 1 µM on hKv1.5 of 44%. At human Kv1.5, this compound returned an IC50 of more than 30 µM.

With `COc1cc(CNc2ncnc3scc(-c4cccs4)c23)cc(OC)c1OC` [Example 94, (5-Thiophen-2-yl-thieno[2,3-d]pyrimidin-4-yl)-(3,4,5-trimethoxy-benzyl)-amine], on hKv1.5, testing at 1 µM gave an inhibition of 19.4%. Moreover, the IC50 against human Kv1.5 was more than 30 µM.

In the case of `c1csc(-c2csc3ncnc(NCC4CC4)c23)c1` [Example 95, Cyclopropylmethyl-(5-thiophen-2-yl-thieno[2,3-d]pyrimidin-4-yl)-amine], the inhibition at 1 µM against hKv1.5 came out at 32.6%. In addition, on human Kv1.5, the IC50 was found to be 4.51 µM.

For `CC(C)CNc1ncnc2scc(-c3cccs3)c12` [Example 96, Isobutyl-(5-thiophen-2-yl-thieno[2,3-d]pyrimidin-4-yl)-amine], the inhibition at 1 µM against hKv1.5 was 22.9%. This compound gave an IC50 at human Kv1.5 of 6.32 µM.

On hKv1.5, `c1ccc(CNc2ncnc3scc(-c4cccs4)c23)cc1` [Example 97, Benzyl-(5-thiophen-2-yl-thieno[2,3-d]pyrimidin-4-yl)-amine] had an inhibition at 1 µM of 43.3%. It took 6.53 µM to reach half-maximal inhibition against human Kv1.5 (IC50).

As to `c1csc(CNc2ncnc3scc(-c4cccs4)c23)c1` [Example 98, Thiophen-2-ylmethyl-(5-thiophen-2-yl-thieno[2,3-d]pyrimidin-4-yl)-amine], on hKv1.5, the “% Inhibition at 1µM” value is 21.0%. Moreover, on human Kv1.5, it took 6.95 µM to reach half-maximal inhibition (IC50).

For `CCN1CCCC1CNc1ncnc2scc(-c3ccccc3)c12` (stereo not drawn) [Example 102, (1-Ethyl-pyrrolidin-2-ylmethyl)-(5-phenyl-thieno[2,3-d]pyrimidin-4-yl)-amine], on human Kv1.5, the IC50 is more than 30 µM.

The compound `c1ccc(-c2csc3ncnc(NCCCn4ccnc4)c23)cc1` [Example 104, (3-Imidazol-1-yl-propyl)-(5-phenyl-thieno[2,3-d]pyrimidin-4-yl)-amine] had an IC50 against human Kv1.5 of more than 30 µM.

With `COCCNc1ncnc2scc(-c3ccccc3)c12` [Example 113, (2-Methoxy-ethyl)-(5-phenyl-thieno[2,3-d]pyrimidin-4-yl)-amine], 5.27 µM corresponded to half-maximal inhibition against human Kv1.5 (IC50).

In turn, `c1ccc(-c2csc3ncnc(NCC4CCCO4)c23)cc1` (stereo not drawn) [Example 114, (5-Phenyl-thieno[2,3-d]pyrimidin-4-yl)-(tetrahydro-furan-2-ylmethyl)-amine] registered a half-inhibitory concentration (IC50) on human Kv1.5 of 5.18 µM.

On human Kv1.5, `c1ccc(-c2csc3ncnc(NCC4OCCO4)c23)cc1` [Example 116, [1,3]Dioxolan-2-ylmethyl-(5-phenyl-thieno[2,3-d]pyrimidin-4-yl)-amine] displayed a 50% inhibitory concentration (IC50) of 6.16 µM.

Turning to `Fc1ccc(-c2csc3ncnc(NCc4ccccn4)c23)cc1` [Example 123, [5-(4-Fluoro-phenyl)-thieno[2,3-d]pyrimidin-4-yl]-pyridin-2-ylmethyl-amine], the 50% inhibitory concentration (IC50) against human Kv1.5 amounted to 0.05 µM.

At human Kv1.5, `Fc1ccc(-c2csc3ncnc(NCc4ccco4)c23)cc1` [Example 124, [5-(4-Fluoro-phenyl)-thieno[2,3-d]pyrimidin-4-yl]-furan-2-ylmethyl-amine] gave a half-maximal inhibitory concentration (IC50) of 1.16 µM.

In turn, `Cc1csc2ncnc(NCCc3ccc(Cl)cc3)c12` [Example 125, [2-(4-Chloro-phenyl)-ethyl]-(5-methyl-thieno[2,3-d]pyrimidin-4-yl)-amine] displayed an IC50 against human Kv1.5 of 6.91 µM.

On to `Cc1ccc(-c2csc3ncnc(NCCc4ccccc4)c23)cc1` [Example 130, Phenethyl-(5-p-tolyl-thieno[2,3-d]pyrimidin-4-yl)-amine], for which, at human Kv1.5, the IC50 amounted to 8.05 µM.
